These cell lines were tested with CO[C@@H]1[C@H](N(C)C(=O)c2ccccc2)C[C@H]2O[C@]1(C)n1c3ccccc3c3c4c(c5c6ccccc6n2c5c31)C(=O)NC4 [Midostaurin] (assay: relative viability (nuclei count vs DMSO), 5 days (fraction); higher = more cells survive). Conditions: 0.01 µM.
Summary of the method: (§1)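 MetaXpress counted nuclei in 4× images of lung cancer cell lines that had been fixed, permeabilised and Hoechst-stained in one step. Before that, cells in 1536-well plates were kept overnight at 37 °C, pinned with five √10-spaced library-drug doses on vehicle-anchored plates, and cultured 5 days without medium change. Viability takes treated-well nuclei over vehicle-well nuclei and uses the median across plates. Plates were accepted only at control CV below 25% and at least one doubling.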
Work on LCLC-103H yielded a relative viability of 1.05. Work on Calu-6 yielded a relative viability of 0.946. NCI-H1648 was tested, and the relative viability was 0.937. Cell Line IA-LM has a relative viability of 0.93. In the case of ChaGo-K-1, the relative viability is reported as 0.919. A549 was tested, and the relative viability was 0.994. Work on NCI-H522 yielded a relative viability of 1.07. SW 900 gave a relative viability of 0.821. In the case of NCI-H441, the relative viability is reported as 0.954. Work on NCI-H1299 yielded a relative viability of 1.01. Work on NCI-H1563 yielded a relative viability of 1.09. ABC-1 showed a relative viability of 0.867.

Same assay, conditions: 0.03162 µM
NCI-H2342 showed a relative viability of 0.903. For NCI-H1623, the relative viability was 0.956. For NCI-H727, the relative viability was 0.82. NCI-H1650 showed a relative viability of 0.957. EBC-1 was tested, and the relative viability was 0.9. NCI-H1703 was tested, and the relative viability was 0.869. With NCI-H1993 the relative viability was 1.01. Work on LCLC-103H yielded a relative viability of 0.922. Calu-6 gave a relative viability of 0.984. Work on NCI-H1648 yielded a relative viability of 0.803. Work on IA-LM yielded a relative viability of 0.677. In the case of ChaGo-K-1, the relative viability is reported as 1.07. A549 gave a relative viability of 0.857. In the case of NCI-H522, the relative viability is reported as 1.06. SW 900 showed a relative viability of 0.777. Work on NCI-H441 yielded a relative viability of 1.03. Work on NCI-H1299 yielded a relative viability of 0.974. Cell Line NCI-H1563 has a relative viability of 1.03. Work on ABC-1 yielded a relative viability of 0.962.

Same assay, conditions: 0.1 µM
NCI-H2342 was tested, and the relative viability was 1.04. NCI-H1623 was tested, and the relative viability was 1.05. With NCI-H727 the relative viability was 1.05. With NCI-H1650 the relative viability was 0.921. EBC-1 showed a relative viability of 0.959. NCI-H1703 gave a relative viability of 0.64. Work on NCI-H1993 yielded a relative viability of 1.17. LCLC-103H was tested, and the relative viability was 0.979. Cell Line Calu-6 has a relative viability of 0.985. With NCI-H1648 the relative viability was 0.724. Work on IA-LM yielded a relative viability of 0.918. With ChaGo-K-1 the relative viability was 0.932. In the case of A549, the relative viability is reported as 0.953. NCI-H522 showed a relative viability of 0.947. Cell Line SW 900 has a relative viability of 0.964. Work on NCI-H441 yielded a relative viability of 0.874. NCI-H1299 gave a relative viability of 0.975. Work on NCI-H1563 yielded a relative viability of 0.957. For ABC-1, the relative viability was 0.948.

Same assay, conditions: 0.3162 µM
In the case of NCI-H2342, the relative viability is reported as 0.989. For NCI-H1623, the relative viability was 1.23. NCI-H727 showed a relative viability of 0.767. With NCI-H1650 the relative viability was 0.937. EBC-1 showed a relative viability of 0.684. In the case of NCI-H1703, the relative viability is reported as 0.266. NCI-H1993 gave a relative viability of 0.802. Work on LCLC-103H yielded a relative viability of 1. Calu-6 was tested, and the relative viability was 1.01. Cell Line NCI-H1648 has a relative viability of 0.927. With IA-LM the relative viability was 0.941. In the case of ChaGo-K-1, the relative viability is reported as 1.02. A549 was tested, and the relative viability was 0.744. NCI-H522 gave a relative viability of 1.04. SW 900 gave a relative viability of 0.745. NCI-H441 showed a relative viability of 0.902. Cell Line NCI-H1299 has a relative viability of 0.965. NCI-H1563 was tested, and the relative viability was 0.769. Cell Line ABC-1 has a relative viability of 0.96.

The cell lines below were run with COc1cc(-c2nn([C@H]3CC[C@H](N4CCN(C(C)=O)CC4)CC3)c3ncnc(N)c23)ccc1NC(=O)c1cc2ccccc2n1C in the same assay as above. Conditions: 0.0128 µM.
Summary of the method: as §1
NCI-H2342 was tested, and the relative viability was 0.807. With NCI-H1623 the relative viability was 1.01. For NCI-H727, the relative viability was 0.974. For NCI-H1650, the relative viability was 0.922. With EBC-1 the relative viability was 1.06. NCI-H1703 was tested, and the relative viability was 0.968. NCI-H1993 was tested, and the relative viability was 0.966. In the case of LCLC-103H, the relative viability is reported as 1.06. With Calu-6 the relative viability was 1.04. Work on NCI-H1648 yielded a relative viability of 0.964. IA-LM was tested, and the relative viability was 1.04. ChaGo-K-1 showed a relative viability of 1.03. A549 gave a relative viability of 0.995. With NCI-H522 the relative viability was 0.936. SW 900 gave a relative viability of 1.03. NCI-H441 showed a relative viability of 1.03. NCI-H1299 gave a relative viability of 1.06. For NCI-H1563, the relative viability was 1.04. With ABC-1 the relative viability was 0.879.

Same assay, conditions: 0.04048 µM
For NCI-H2342, the relative viability was 1.03. NCI-H1623 gave a relative viability of 1.05. NCI-H1650 was tested, and the relative viability was 1.1. EBC-1 gave a relative viability of 1.07. With NCI-H1703 the relative viability was 0.581. Cell Line NCI-H1993 has a relative viability of 0.737. Work on LCLC-103H yielded a relative viability of 1.01. Calu-6 gave a relative viability of 1.04. Cell Line NCI-H1648 has a relative viability of 0.766. IA-LM gave a relative viability of 0.999. ChaGo-K-1 was tested, and the relative viability was 0.98. With A549 the relative viability was 0.952. For NCI-H522, the relative viability was 0.875. SW 900 showed a relative viability of 0.986. With NCI-H441 the relative viability was 0.976. Cell Line NCI-H1299 has a relative viability of 1.11. NCI-H1563 showed a relative viability of 1.12. With ABC-1 the relative viability was 0.885.

Same assay, conditions: 0.128 µM
With NCI-H2342 the relative viability was 1. Work on NCI-H1623 yielded a relative viability of 0.946. NCI-H727 showed a relative viability of 0.826. For NCI-H1650, the relative viability was 0.941. Work on EBC-1 yielded a relative viability of 1.01. In the case of NCI-H1703, the relative viability is reported as 0.803. With NCI-H1993 the relative viability was 0.834. Cell Line LCLC-103H has a relative viability of 1. Calu-6 was tested, and the relative viability was 0.899. NCI-H1648 was tested, and the relative viability was 0.858. In the case of IA-LM, the relative viability is reported as 1.05. With ChaGo-K-1 the relative viability was 0.891. A549 showed a relative viability of 0.979. In the case of NCI-H522, the relative viability is reported as 0.954. With SW 900 the relative viability was 0.788. With NCI-H441 the relative viability was 0.922. NCI-H1299 was tested, and the relative viability was 1. With NCI-H1563 the relative viability was 0.971. ABC-1 showed a relative viability of 0.756.

Same assay, conditions: 1.28 µM
With NCI-H2342 the relative viability was 0.932. In the case of NCI-H1623, the relative viability is reported as 0.739. Work on NCI-H727 yielded a relative viability of 0.906. NCI-H1650 gave a relative viability of 0.812. Cell Line EBC-1 has a relative viability of 1.02. NCI-H1703 gave a relative viability of 0.324. NCI-H1993 was tested, and the relative viability was 0.87. With LCLC-103H the relative viability was 1.07. Calu-6 showed a relative viability of 0.764. For NCI-H1648, the relative viability was 0.721. IA-LM gave a relative viability of 0.991. With ChaGo-K-1 the relative viability was 0.898. In the case of A549, the relative viability is reported as 0.957. For NCI-H522, the relative viability was 0.885. Work on SW 900 yielded a relative viability of 1. NCI-H441 was tested, and the relative viability was 0.84. NCI-H1299 was tested, and the relative viability was 1. In the case of NCI-H1563, the relative viability is reported as 0.709. ABC-1 gave a relative viability of 0.805.
